Absolute recovery and LC retention time data for 22 compounds are collected here from the supplement of paper PMC6470124.

The nature of series [1]: absolute recovery over vacuum-assisted evaporative concentration; higher = better recovery. Conditions: enrichment method: VEC. The essentials:
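After spiking with standards before concentration, after concentration or not at all, at 1000 ng/L for wastewater or 200 ng/L for nanopure and surface water with class- and compound-specific adjustments, samples of 6 mL influent, 15 mL effluent and 60 mL surface or nanopure water were evaporated at 55 °C and 20 mbar to about 0.3 mL. They were brought to 0.4 mL, centrifuged, given internal standards and analysed by LC-HRMS/MS. Absolute recovery, (response ratio pre − unspiked)/(post − unspiked) × 100, used averages of ≥ 2 replicates.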

Series [2] in a line: absolute recovery over mixed-bed multilayer solid-phase extraction; higher = better recovery. To be noted: enrichment method: SPE. The essentials:
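Absolute recovery was calculated by comparing background-corrected response ratios of samples spiked before extraction with those spiked after it, averaged over at least two replicates. Wastewater (100–250 mL, adjusted to pH 6.5 and glass-fibre filtered) or 1000 mL of unfiltered nanopure water was passed through a three-layer mixed-bed cartridge and eluted with basic and then acidic ethyl acetate/methanol. Standards were added before extraction, after extraction, or not at all, at 200 ng/L in water or 1000 ng/L in wastewater, with exceptions for some classes. Internal standards were added afterwards, and samples were analysed by liquid chromatography with high-resolution tandem mass spectrometry in both ionisation modes.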

Series [3] is described as follows: LC retention time (Atlantis T3, 5-95% MeOH gradient, 0.1% formic acid); higher = more retained / less polar. The essentials: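 Retention times were recorded for reference standards on a polar reversed-phase C18 column. The standards were of purity ≥ 95%, and the Atlantis T3 column (3 × 150 mm, 3 μm) was run at 0.3 mL/min with a gradient from 5 to 95% methanol over 17.5 min, both water and methanol containing 0.1% formic acid. Detection used high-resolution tandem mass spectrometry on a QExactive Plus, with positive and negative electrospray in separate runs, and peaks were integrated in TraceFinder (5 ppm tolerance, at least three points per peak) before being checked by hand.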

On to `O=C([O-])Cc1ccccc1Nc1c(Cl)cc(O)cc1Cl` [4-Hydroxydiclofenac A], for which the absolute recovery worked out at 95.8% in series [1] (wastewater effluent); 92.8% in series [1] (wastewater influent); 73.5% in series [2] (nanopure water); 81.4% in series [2] (surface water); 76.2% in series [2] (wastewater effluent); 83.3% in series [2] (wastewater influent). Moreover, in series [3], the LC retention time stood at 19.2 min.

For `O=C1CCC2(O)C3Cc4ccc(O)c5c4C2(CC[NH+]3CC2CC2)C1O5` (centres undefined) [Naltrexon], the absolute recovery in series [1] (wastewater effluent) turned out to be 103%; in series [1] (wastewater influent) it was 99%; in series [2] (nanopure water) it was 87.8%; in series [2] (surface water), 98.2%; in series [2] (wastewater effluent), 95.7%; in series [2] (wastewater influent), 94.3%. The same compound yielded an LC retention time in series [3] of 9.63 min.

With `Nc1nc(=O)n(C2CSC(CO)O2)cc1F` (centres undefined) [Emtricitabine], the absolute recovery in series [1] (wastewater effluent) was found to be 103%; in series [1] (wastewater influent), 101%; in series [2] (nanopure water), 75.9%; in series [2] (surface water) it was 87.2%; in series [2] (wastewater effluent), 84.2%; in series [2] (wastewater influent) it was 85.2%. Also, the LC retention time in series [3] was 9.72 min.

Regarding `O=C([O-])c1ccc(-c2ccccc2-c2nn[nH]n2)cc1` [Valsartan-acid], the absolute recovery in series [1] (wastewater influent) was determined as 104%; in series [2] (nanopure water), 96.4%; in series [2] (surface water), 101%; in series [2] (wastewater influent) it was 95.2%. In addition, the LC retention time in series [3] was 16.4 min.

As for `C#CC[NH2+]C(C)Cc1ccccc1` (centres undefined) [Nordeprenyl], the absolute recovery came to 38.9% in series [1] (wastewater effluent); 11.4% in series [1] (wastewater influent); 74.8% in series [2] (nanopure water); 84.7% in series [2] (surface water); 80.2% in series [2] (wastewater effluent); 78.3% in series [2] (wastewater influent). Besides, in series [3], the LC retention time is 11.5 min.

Turning to `C[NH2+]CCC(c1ccccc1)c1ccccn1` (centres undefined) [N-desmethylpheniramine], the absolute recovery in series [1] (wastewater effluent) turned out to be 106%; in series [1] (wastewater influent), 109%; in series [2] (nanopure water) it was 59.5%; in series [2] (surface water), 65.4%; in series [2] (wastewater effluent) it was 65.1%; in series [2] (wastewater influent), 81.3%. In series [3], this compound came in with an LC retention time of 10.8 min.

For the compound `CCOP(=O)(OCC)OCC` [Triethylphosphat], the absolute recovery in series [1] (wastewater effluent) was 83.5%; in series [1] (wastewater influent), 79.6%; in series [2] (nanopure water), 76.6%; in series [2] (surface water) it was 87.7%; in series [2] (wastewater effluent) it was 81.5%. Besides, in series [3], the LC retention time came out at 15.9 min.

Take `CCC1OC(=O)C(C)C(OC2CC(C)(OC)C(O)C(C)O2)C(C)C(OC2OC(C)CC([NH2+]C)C2O)C(C)(O)CC(C)C[NH+](C)C(C)C(O)C1(C)O` (centres undefined) [N-Desmethyl-Azithromycin]: the absolute recovery in series [1] (wastewater effluent) turned out to be 117%; in series [1] (wastewater influent), 94.9%; in series [2] (nanopure water), 104%; in series [2] (surface water) it was 98.1%; in series [2] (wastewater effluent), 98.7%; in series [2] (wastewater influent), 121%. The LC retention time in series [3] amounted to 13.1 min.

As to `O=C([O-])C(c1ccccc1Cl)[NH+]1CCc2sccc2C1` (centres undefined) [Clopidogrel-Carboxylic-Acid], the absolute recovery in series [1] (wastewater effluent) stood at 103%; in series [1] (wastewater influent), 102%; in series [2] (nanopure water) it was 93.2%; in series [2] (surface water) it was 94%; in series [2] (wastewater effluent), 91.1%; in series [2] (wastewater influent), 92.8%. In addition, the LC retention time in series [3] was 14.8 min.

Turning to `COc1ccc2c3c1OC1C(=O)CCC4C(C2)[NH+](C)CCC314` (centres undefined) [Hydrocodone], the absolute recovery in series [1] (wastewater effluent) was 103%; in series [1] (wastewater influent), 100%; in series [2] (nanopure water), 82.5%; in series [2] (surface water), 89.4%; in series [2] (wastewater effluent) it was 93.1%; in series [2] (wastewater influent), 89.3%. The compound also had an LC retention time in series [3] of 9.79 min.

For the compound `CCc1cccc(C)c1N(C(=O)C(=O)[O-])C(C)COC` (centres undefined) [Metolachlor-OXA], the absolute recovery stood at 110% in series [1] (wastewater effluent); 99.1% in series [1] (wastewater influent); 81.6% in series [2] (nanopure water); 67.5% in series [2] (surface water); 87.9% in series [2] (wastewater effluent); 97.3% in series [2] (wastewater influent). In series [3], this compound registered an LC retention time of 21.3 min.

With `CC(Cn1cnc2c(N)ncnc21)OCP(=O)([O-])O` (centres undefined) [Tenofovir], the absolute recovery in series [1] (wastewater effluent) turned out to be 105%; in series [1] (wastewater influent) it was 114%; in series [2] (nanopure water), 70%; in series [2] (wastewater effluent), 1.9%. In series [3], the LC retention time is 7.16 min.

Regarding `COC(=O)c1ccc(C(F)(F)F)nc1S(=O)(=O)[N-]C(=O)Nc1nc(OC)cc(OC)n1` [Flupyrsulfuron-methyl-], the absolute recovery is 65.8% in series [1] (wastewater effluent); 59.1% in series [1] (wastewater influent); 98.2% in series [2] (nanopure water); 97.5% in series [2] (surface water); 93.6% in series [2] (wastewater effluent); 89.3% in series [2] (wastewater influent). Also, the LC retention time in series [3] was found to be 19.2 min.

In the case of `CC(CN1c2ccccc2CCc2ccccc21)C[NH+](C)C` (centres undefined) [Trimipramin], the absolute recovery in series [1] (wastewater effluent) is 101%; in series [1] (wastewater influent), 104%; in series [2] (nanopure water), 89.9%; in series [2] (surface water), 102%; in series [2] (wastewater effluent) it was 95.3%; in series [2] (wastewater influent), 54.3%. Also, the LC retention time in series [3] was 16.2 min.

For the compound `CC1(C(=O)[O-])CCC2(C)CCC3(C)C(=CC(=O)C4C5(C)CCC(O)C(C)(C)C5CCC43C)C2C1` (stereo not drawn) [18-beta-Glycyrrhetinic-acid], the absolute recovery in series [1] (wastewater effluent) stood at 88.9%; in series [1] (wastewater influent), 27.7%; in series [2] (nanopure water), 90.6%; in series [2] (surface water) it was 103%; in series [2] (wastewater effluent) it was 84.8%; in series [2] (wastewater influent), 90.8%. In addition, in series [3], the LC retention time was found to be 24.5 min.

Regarding `CNC(=O)Nc1ccc(Cl)c(Cl)c1` [Diuron-desmonomethyl (=DCPMU)], the absolute recovery in series [1] (wastewater effluent) came out at 105%; in series [1] (wastewater influent), 106%; in series [2] (nanopure water), 99.4%; in series [2] (surface water), 112%; in series [2] (wastewater effluent), 102%; in series [2] (wastewater influent) it was 86.1%. The LC retention time in series [3] came to 18.6 min.

Consider `COc1cc(OC)nc(NC(=O)[N-]S(=O)(=O)N(C)S(C)(=O)=O)n1` [Amidosulfuron], for which the absolute recovery in series [1] (wastewater effluent) was found to be 112%; in series [1] (wastewater influent) it was 98.2%; in series [2] (nanopure water) it was 94.7%; in series [2] (surface water), 101%; in series [2] (wastewater effluent), 93.3%; in series [2] (wastewater influent), 111%. The LC retention time in series [3] stood at 18 min.

As to `Clc1ccccc1C(c1ccccc1)(c1ccccc1)n1ccnc1` [Clotrimazol], the absolute recovery in series [1] (wastewater effluent) worked out at 111%; in series [1] (wastewater influent), 110%; in series [2] (nanopure water) it was 93.4%; in series [2] (surface water), 90.3%; in series [2] (wastewater effluent), 85.9%; in series [2] (wastewater influent) it was 90.1%. Besides, in series [3], the LC retention time is 16.6 min.

Turning to `CC([NH2+]C(C)(C)C)C(=O)c1cccc(Cl)c1` (centres undefined) [Bupropion], the absolute recovery in series [1] (wastewater effluent) was 51.1%; in series [1] (wastewater influent) it was 31.5%; in series [2] (nanopure water), 79.1%; in series [2] (surface water), 78%; in series [2] (wastewater effluent), 74.3%; in series [2] (wastewater influent), 78.3%. The compound further showed an LC retention time in series [3] of 13.5 min.

On to `CC#Cc1cc(C)nc(Nc2ccccc2)n1` [Mepanipyrim], for which the absolute recovery in series [1] (wastewater effluent) came to 95.3%; in series [1] (wastewater influent) it was 62.1%; in series [2] (nanopure water) it was 93.5%; in series [2] (surface water), 107%; in series [2] (wastewater effluent), 103%; in series [2] (wastewater influent) it was 94.9%. The LC retention time in series [3] was 20.2 min.

As to `CCC1OC(=O)C(C)C(OC2CC(C)(OC)C(O)C(C)O2)C(C)C(OC2OC(C)CC([NH+](C)C)C2O)C(C)(O)CC(C)C(=NOCOCCOC)C(C)C(O)C1(C)O` (centres undefined) [Roxithromycin], the absolute recovery in series [1] (wastewater effluent) worked out at 90.2%; in series [1] (wastewater influent), 90.4%; in series [2] (nanopure water) it was 80.1%; in series [2] (surface water) it was 95.7%; in series [2] (wastewater effluent), 87.5%; in series [2] (wastewater influent), 98.8%. This compound came in with an LC retention time in series [3] of 17 min.

In the case of `O=[N+]([O-])N=C1NCCN1Cc1ccc(Cl)nc1` [Imidacloprid], the absolute recovery in series [1] (wastewater effluent) came to 103%; in series [1] (wastewater influent) it was 98.6%; in series [2] (nanopure water), 97.8%; in series [2] (surface water), 96.7%; in series [2] (wastewater effluent) it was 95.4%; in series [2] (wastewater influent), 91.9%. For the same compound, the LC retention time in series [3] stood at 13.4 min.
